Where two headings read alike, the source gives them in different places.
Experiments:
[1] = target: FGFR1 (h) (Homo sapiens, UniProt P11362); experiment: FGFR1 (enzymatic assay), TR-FRET; type: biochemical
[2] = target: T1, Ba/F3-FGFR1-transfected cells (Homo sapiens, UniProt P11362); experiment: Ba/F3-FGFR1 (minus IL3 or plus IL3) cellular proliferation assay; type: cell-based; settings: 24 hours, Alamar Blue
T1 construct: other: minus IL3; 24 hours, Alamar Blue
Description: Ba/F3-FGFR1 (Minus IL3 or Plus IL3) (Cellular Proliferation Assay)
(§1) In a 384 well plate, 100 nl of compound dilution in DMSO was sprayed before adding 50 μl cell culture medium (phenol red free RPMI-1640, 10% FBS, 2 mM L-Glutamine and 50 μg/ml Gentamycin) containing 20000 cells per well of Ba/F3-FGFR1-transfected cells. Cells were put in an incubator at 37° C. and 5% CO2. After 24 hours, 10 μl of Alamar Blue solution (0.5 mM K3Fe(CN)6, 0.5 mM K4Fe(CN)6, 0.15 mM Resazurin and 100 mM Phosphate Buffer) was added to the wells, incubated for 4 hours at 37° C. and 5% CO2 before RFU's (Relative Fluorescence Units) (ex. 540 nm., em. 590 nm.) were measured in a fluorescence plate reader.
(§2) In this assay, the inhibitory effect of different compound concentrations (range 10 μM to 0.1 nM) was determined and used to calculate an IC50 (M) and pIC50 (−log IC50) value. As a counterscreen the same experiment was performed in the presence of 10 ng/ml murine IL3.

[3] = target: T2, Ba/F3-FGFR3-transfected cells (Homo sapiens, UniProt P22607, cells depend on it, form not given); experiment: Ba/F3-FGFR3 (minus IL3 or plus IL3) cellular proliferation assay; type: cell-based; settings: 24 hours, Alamar Blue
T2 construct: BAF3-FGFR3 (MIN IL3 pIC50); other: minus IL3; 24 hours, Alamar Blue
Description: Ba/F3-FGFR3 (Minus IL3 or Plus IL3) (Cellular Proliferation Assay)
as §1, with “Ba/F3-FGFR3-transfected” for “Ba/F3-FGFR1-transfected”
as §2

[4] = target: T3, Ba/F3-KDR-transfected cells (Homo sapiens, UniProt P35968, cells depend on it, form not given); experiment: Ba/F3-KDR (minus IL3 or plus IL3) cellular proliferation assay; type: cell-based; settings: 24 hours, Alamar Blue
T3 construct: BAF3-KDR (MIN IL3 pIC50); other: minus IL3; 24 hours, Alamar Blue
Description: Ba/F3-KDR (Minus IL3 or Plus IL3) (Cellular Proliferation Assay)
as §1, with “Ba/F3-KDR-transfected” for “Ba/F3-FGFR1-transfected”
as §2

[5] = target: FGFR4 (h) (Homo sapiens, UniProt P22455); experiment: FGFR4 (enzymatic assay), TR-FRET; type: biochemical; settings: 5 μM ATP; pIC50 = -log IC50 (M); read-out: FGFR 4 pIC50 (converted)
[6] = target: KDR (h) (Homo sapiens, UniProt P35968); experiment: KDR (VEGFR2) (enzymatic assay), TR-FRET; type: biochemical; settings: 3 μM ATP; pIC50 = -log IC50 (M); read-out: VEGFR KDR pIC50 (converted)
Description: KDR (VEGFR2) (Enzymatic Assay)
In a final reaction volume of 30 μL, KDR (h) (150 ng/ml) was incubated with 50 mM HEPES pH 7.5, 6 mM MnCl2, 1 mM DTT, 0.1 mM Na3VO4, 0.01% Triton-X-100, 500 nM Btn-Flt3 and 3 μM ATP in the presence of compound (1% DMSO final). After incubation for 120 minutes at room temperature the reaction was stopped with 2.27 nM EU-anti P-Tyr, 7 mM EDTA, 31.25 nM SA-XL-665 and 0.02% BSA which was present for 60 minutes at room temperature. Time-Resolved Fluorescence Resonance Energy Transfer (TR-FRET) signal (ex340 nm. Em 620 nm, em 655 nm) was measured afterwards and results are expressed in RFU (Relative Fluorescence Units). In this assay, the inhibitory effect of different compound concentrations (range 10 μM to 0.1 nM) was determined and used to calculate an IC50 (M) and pIC50 (−log IC50) value.

[7] = target: FGFR3 (h) (Homo sapiens, UniProt P22607); experiment: FGFR3 (enzymatic assay), TR-FRET; type: biochemical
[8] = target: FGFR2 (h) (Homo sapiens, UniProt P21802); experiment: FGFR2 (enzymatic assay), TR-FRET; type: biochemical
[9] = target: Ba/F3-FGFR4-transfected cells (Homo sapiens, UniProt P22455, cells depend on it, form not given); experiment: Ba/F3-FGFR4 cellular proliferation assay; type: cell-based; settings: 24 hours, Alamar Blue
Description: Ba/F3-FGFR4 (Cellular Proliferation Assay)
as §1, with “Ba/F3-FGFR4-transfected” for “Ba/F3-FGFR1-transfected”
In this assay, the inhibitory effect of different compound concentrations (range 10 μM to 0.1 nM) was determined and used to calculate an IC50 (M) and pIC50 (−log IC50) value.

[10] = target: T4, FGFR3 (Homo sapiens, UniProt P22607); experiment: Enzyme binding assay (KINOMEscan) FGFR3; settings: pKd = -log Kd (M), read-out: FGFR3_pKd (converted)
T4 construct: purchased DiscoveRx Corporation
Description: (§3) Enzyme Binding Assays (KINOMEscan®)
(§4) Kinase enzyme binding affinities of compounds disclosed herein were determined using the KINOMEscan® technology performed by DiscoveRx Corporation, San Diego, Calif., USA (www.kinomescan.com).

[11] = target: T5, VEGFR2 (Homo sapiens, UniProt P35968); experiment: Enzyme binding assay (KINOMEscan) VEGFR2; settings: pKd = -log Kd (M), read-out: VEGFR2_pKd (converted)
T5 construct: purchased DiscoveRx Corporation
Description: as §3, §4

[12] = target: T6, FGFR1 (Homo sapiens, UniProt P11362); experiment: Enzyme binding assay (KINOMEscan) FGFR1; settings: FGFR1_pKd, pKd = -log Kd (M)
T6 construct: purchased DiscoveRx Corporation
Description: as §3, §4

[13] = target: T7, FGFR4 (Homo sapiens, UniProt P22455); experiment: Enzyme binding assay (KINOMEscan) FGFR4; settings: pKd = -log Kd (M), read-out: FGFR4_pKd (converted)
T7 construct: purchased DiscoveRx Corporation
Description: as §3, §4

[14] = target: T8, FGFR2 (Homo sapiens, UniProt P21802); experiment: Enzyme binding assay (KINOMEscan) FGFR2; settings: pKd = -log Kd (M), read-out: FGFR2_pKd (converted)
T8 construct: purchased DiscoveRx Corporation
Description: as §3, §4

[15] = 25 μM ATP, pIC50 = -log IC50 (M), read-out: FGFR3 pIC50 (converted)
[16] = 0.4 μM ATP, pIC50 = -log IC50 (M), read-out: FGFR 2 pIC50 (converted)

FGFR4 (h), sequence (P22455 22-802): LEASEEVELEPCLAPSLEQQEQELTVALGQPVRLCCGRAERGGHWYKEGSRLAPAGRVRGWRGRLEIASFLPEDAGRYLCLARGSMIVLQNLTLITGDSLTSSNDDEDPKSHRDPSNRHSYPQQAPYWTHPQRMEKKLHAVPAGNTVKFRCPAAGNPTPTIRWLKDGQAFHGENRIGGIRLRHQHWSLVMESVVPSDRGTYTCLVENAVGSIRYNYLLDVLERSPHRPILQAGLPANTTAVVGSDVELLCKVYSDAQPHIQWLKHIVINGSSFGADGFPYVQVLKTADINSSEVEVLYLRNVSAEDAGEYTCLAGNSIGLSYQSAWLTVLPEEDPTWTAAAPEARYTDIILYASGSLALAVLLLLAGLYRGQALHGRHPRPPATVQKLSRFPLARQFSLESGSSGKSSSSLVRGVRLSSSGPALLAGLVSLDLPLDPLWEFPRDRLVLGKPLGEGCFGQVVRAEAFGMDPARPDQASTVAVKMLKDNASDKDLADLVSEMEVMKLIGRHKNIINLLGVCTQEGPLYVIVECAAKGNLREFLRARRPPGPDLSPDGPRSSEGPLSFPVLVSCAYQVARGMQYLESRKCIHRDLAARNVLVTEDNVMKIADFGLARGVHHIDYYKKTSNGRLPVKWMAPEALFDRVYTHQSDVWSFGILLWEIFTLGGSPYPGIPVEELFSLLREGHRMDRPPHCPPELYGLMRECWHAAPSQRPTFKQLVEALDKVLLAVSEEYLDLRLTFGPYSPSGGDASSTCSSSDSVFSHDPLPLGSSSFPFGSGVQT
T7 sequence (P22455 22-802): as above
T3 sequence (P35968 whole entry, looked up, change not shown): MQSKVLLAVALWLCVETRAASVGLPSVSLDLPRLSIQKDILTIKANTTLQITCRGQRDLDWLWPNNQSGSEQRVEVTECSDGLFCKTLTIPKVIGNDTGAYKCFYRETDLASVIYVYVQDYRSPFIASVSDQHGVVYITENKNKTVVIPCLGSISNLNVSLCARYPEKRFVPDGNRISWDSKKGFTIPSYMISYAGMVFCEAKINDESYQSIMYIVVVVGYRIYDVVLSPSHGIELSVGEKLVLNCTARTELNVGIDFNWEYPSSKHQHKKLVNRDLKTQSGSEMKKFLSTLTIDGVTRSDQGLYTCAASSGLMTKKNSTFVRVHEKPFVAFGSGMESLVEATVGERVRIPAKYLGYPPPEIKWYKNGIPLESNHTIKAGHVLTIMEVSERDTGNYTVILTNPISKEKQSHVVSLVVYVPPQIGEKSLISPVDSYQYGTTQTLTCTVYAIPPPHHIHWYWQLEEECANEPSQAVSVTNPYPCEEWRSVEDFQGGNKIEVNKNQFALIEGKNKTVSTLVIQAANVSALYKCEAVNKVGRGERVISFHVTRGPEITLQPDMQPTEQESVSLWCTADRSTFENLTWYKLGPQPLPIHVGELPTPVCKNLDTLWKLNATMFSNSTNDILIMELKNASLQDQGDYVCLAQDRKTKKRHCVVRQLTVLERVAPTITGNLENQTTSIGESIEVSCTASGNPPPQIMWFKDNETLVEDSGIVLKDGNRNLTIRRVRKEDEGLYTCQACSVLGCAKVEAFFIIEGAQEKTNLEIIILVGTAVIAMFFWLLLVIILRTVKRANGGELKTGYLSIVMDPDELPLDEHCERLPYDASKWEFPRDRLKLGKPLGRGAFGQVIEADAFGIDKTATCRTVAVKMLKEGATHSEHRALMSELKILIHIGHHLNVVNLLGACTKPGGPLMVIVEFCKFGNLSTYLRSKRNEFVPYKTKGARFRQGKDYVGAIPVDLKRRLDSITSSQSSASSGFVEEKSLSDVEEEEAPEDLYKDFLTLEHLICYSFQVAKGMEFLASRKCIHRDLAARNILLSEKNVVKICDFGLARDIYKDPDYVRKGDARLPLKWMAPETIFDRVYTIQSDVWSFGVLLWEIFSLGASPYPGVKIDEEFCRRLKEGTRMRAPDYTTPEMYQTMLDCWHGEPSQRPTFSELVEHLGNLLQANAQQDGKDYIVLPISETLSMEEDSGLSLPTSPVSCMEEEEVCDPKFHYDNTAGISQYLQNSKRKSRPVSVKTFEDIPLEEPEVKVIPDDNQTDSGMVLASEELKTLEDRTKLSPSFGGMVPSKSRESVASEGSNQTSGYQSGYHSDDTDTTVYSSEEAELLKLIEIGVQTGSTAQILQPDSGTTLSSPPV
T6 sequence (P11362 22-822): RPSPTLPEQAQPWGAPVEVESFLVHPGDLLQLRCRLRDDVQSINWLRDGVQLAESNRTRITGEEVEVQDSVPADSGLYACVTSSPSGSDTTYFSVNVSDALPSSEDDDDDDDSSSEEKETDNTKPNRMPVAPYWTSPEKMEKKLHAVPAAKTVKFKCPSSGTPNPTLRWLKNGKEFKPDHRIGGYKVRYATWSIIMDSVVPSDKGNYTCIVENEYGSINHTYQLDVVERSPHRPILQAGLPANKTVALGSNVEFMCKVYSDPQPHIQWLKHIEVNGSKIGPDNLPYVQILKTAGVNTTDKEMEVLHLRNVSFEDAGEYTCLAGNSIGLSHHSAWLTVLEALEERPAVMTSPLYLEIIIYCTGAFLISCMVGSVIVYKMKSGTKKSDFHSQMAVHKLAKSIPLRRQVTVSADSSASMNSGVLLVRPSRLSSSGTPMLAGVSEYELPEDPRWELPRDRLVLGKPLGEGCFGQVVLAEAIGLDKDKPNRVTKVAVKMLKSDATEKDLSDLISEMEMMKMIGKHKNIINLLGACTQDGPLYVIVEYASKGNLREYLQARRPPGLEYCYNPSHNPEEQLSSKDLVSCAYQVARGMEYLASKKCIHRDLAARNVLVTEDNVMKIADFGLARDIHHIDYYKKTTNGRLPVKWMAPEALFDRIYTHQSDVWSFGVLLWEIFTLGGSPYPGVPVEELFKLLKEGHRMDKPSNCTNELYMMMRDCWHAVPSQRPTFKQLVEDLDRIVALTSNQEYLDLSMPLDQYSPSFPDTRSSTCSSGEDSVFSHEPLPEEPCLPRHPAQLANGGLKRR
FGFR1 (h), sequence (P11362 22-822): as above
Ba/F3-FGFR4-transfected cells, sequence (P22455 whole entry, looked up, change not shown): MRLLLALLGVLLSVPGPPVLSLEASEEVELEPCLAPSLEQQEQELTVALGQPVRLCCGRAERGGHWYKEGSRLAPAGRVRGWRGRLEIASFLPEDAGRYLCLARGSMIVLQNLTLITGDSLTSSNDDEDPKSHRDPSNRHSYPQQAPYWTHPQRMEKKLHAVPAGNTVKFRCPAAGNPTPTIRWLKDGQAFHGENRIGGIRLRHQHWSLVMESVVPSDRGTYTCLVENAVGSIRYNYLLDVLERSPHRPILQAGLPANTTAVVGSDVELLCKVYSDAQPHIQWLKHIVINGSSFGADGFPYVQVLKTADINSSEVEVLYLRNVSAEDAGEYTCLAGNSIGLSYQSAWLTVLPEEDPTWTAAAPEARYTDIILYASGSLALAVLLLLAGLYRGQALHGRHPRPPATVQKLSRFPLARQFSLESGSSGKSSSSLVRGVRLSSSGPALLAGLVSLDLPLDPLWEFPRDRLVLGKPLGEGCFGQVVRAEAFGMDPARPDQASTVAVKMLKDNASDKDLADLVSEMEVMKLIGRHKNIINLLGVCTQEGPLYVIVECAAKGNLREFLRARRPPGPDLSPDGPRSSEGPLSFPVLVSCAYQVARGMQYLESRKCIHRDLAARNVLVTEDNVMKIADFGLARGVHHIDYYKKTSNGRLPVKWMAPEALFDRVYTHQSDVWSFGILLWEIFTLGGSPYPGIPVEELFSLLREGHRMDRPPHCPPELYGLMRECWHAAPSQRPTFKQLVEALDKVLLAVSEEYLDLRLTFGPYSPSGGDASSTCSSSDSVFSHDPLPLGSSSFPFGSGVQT
FGFR3 (h), sequence (P22607 23-806): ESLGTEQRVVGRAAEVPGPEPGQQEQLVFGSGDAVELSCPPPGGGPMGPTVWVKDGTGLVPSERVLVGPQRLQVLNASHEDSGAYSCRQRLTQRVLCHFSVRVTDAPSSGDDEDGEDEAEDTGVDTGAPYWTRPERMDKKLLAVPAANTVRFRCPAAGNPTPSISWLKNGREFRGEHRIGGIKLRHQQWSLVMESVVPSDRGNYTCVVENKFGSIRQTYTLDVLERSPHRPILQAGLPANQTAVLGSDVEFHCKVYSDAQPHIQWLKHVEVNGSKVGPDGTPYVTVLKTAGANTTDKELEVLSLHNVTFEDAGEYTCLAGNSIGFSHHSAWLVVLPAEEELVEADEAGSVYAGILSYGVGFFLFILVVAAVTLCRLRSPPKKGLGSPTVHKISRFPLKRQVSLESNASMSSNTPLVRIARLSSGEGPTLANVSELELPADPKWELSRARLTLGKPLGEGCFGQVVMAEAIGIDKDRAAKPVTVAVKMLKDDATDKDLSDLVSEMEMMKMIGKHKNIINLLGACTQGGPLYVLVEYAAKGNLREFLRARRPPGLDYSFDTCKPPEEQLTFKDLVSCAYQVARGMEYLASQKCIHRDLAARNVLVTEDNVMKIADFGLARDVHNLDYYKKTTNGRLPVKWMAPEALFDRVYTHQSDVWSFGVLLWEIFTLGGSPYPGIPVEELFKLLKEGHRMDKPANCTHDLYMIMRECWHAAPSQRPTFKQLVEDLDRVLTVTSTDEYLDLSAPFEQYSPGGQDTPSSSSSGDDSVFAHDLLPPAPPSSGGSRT
T4 sequence (P22607 23-806): as above

Row | SMILES | IC50 [1] [nM] | BAF3-FGFR1 (MIN IL3 pIC50) [2] | BAF3-FGFR3 (MIN IL3 pIC50) [3] | BAF3-KDR (MIN IL3 pIC50) [4] | IC50 [5] [M] | IC50 [6] [M] | IC50 [7, 15] [M] | IC50 [8, 16] [M] | melting point [°C] | BAF3-FGFR4 (pIC50) [9] | IC50 [8] [M] | IC50 [7] [M] | Kd [10] [M] | Kd [11] [M] | Kd [12] [M] | Kd [13] [M] | Kd [14] [M]
1 | COc1cc(OC)c(Cl)c(N(CCO)c2ccc3ncn(-c4cnn(C)c4)c(=O)c3c2)c1Cl [Compound 10] | 12.6 | 6.2 | 6.3 | ~5 | 2e-07 | 5.01e-07 | 7.94e-09 | 1.58e-08 | 223 | 5.1 | – | – | – | – | – | – | –
2 | COc1cc(OC)cc(N(CCNC(C)C)c2ccc3ncn(-c4cnn(C)c4)c(=O)c3c2)c1 [Compound 9] | 5.01 | 7.2 | ~7.09 | 5.2 | 5.01e-08 | 5.01e-07 | 1e-08 | 6.31e-09 | 142 | 6.2 | – | – | – | – | – | – | –
3 | COc1cc(OC)c(Cl)c(N(Cc2ncc[nH]2)c2ccc3ncn(-c4cnn(C)c4)c(=O)c3c2)c1Cl [Compound 13] | 15.8 | 5.5 | 5.9 | 5.1 | 1.26e-07 | 2.51e-07 | 1.26e-08 | – | – | 5.2 | 1.58e-08 | – | – | – | – | – | –
4 | COc1cc(OC)c(F)c(N(CCO)c2ccc3ncn(-c4cnn(C)c4)c(=O)c3c2)c1F [Compound 18] | 1.58 | 7.2 | ~7.68 | 5.6 | 5.01e-09 | 3.98e-08 | – | 2.51e-09 | 165 | 6.6 | – | 1.58e-09 | – | – | – | – | –
5 | COc1cc(OC)c(F)c(N(CCO)c2ccc3ncn(-c4ccccc4)c(=O)c3c2)c1 [Compound 6] | 79.4 | 5.5 | 5.5 | <5 | 3.16e-07 | > 1e-06 | – | 5.01e-08 | 183 | 5.0 | – | 3.98e-08 | – | – | – | – | –
6 | COc1cc(OC)c(Cl)c(N(CCO)c2ccc3ncn(-c4ccccc4)c(=O)c3c2)c1Cl [Compound 5] | 63.1 | 5.5 | 5.3 | <5 | 5.01e-07 | ~1e-06 | 2.51e-08 | 3.98e-08 | 251 | <5 | – | – | – | – | – | – | –
7 | COc1cc(OC)c(F)c(N(Cc2ncc[nH]2)c2ccc3ncn(-c4ccccc4)c(=O)c3c2)c1F [Compound 4] | 15.8 | 6.1 | 6.2 | <5 | 2.51e-08 | > 1e-06 | 7.94e-09 | 1.26e-08 | – | 5.4 | – | – | – | – | – | – | –
8 | COc1cccc(C(=O)c2ccc3ncn(-c4cnn(C)c4)c(=O)c3c2)c1 [Compound 23] | > 1000 | <5 | <5 | <5 | > 1e-06 | > 1e-06 | > 1e-06 | > 1e-06 | – | <5 | – | – | – | – | – | – | –
9 | COc1cc(OC)c(F)c(N(CCCO)c2ccc3ncn(C4CCNCC4)c(=O)c3c2)c1F [Compound 53] | – | – | – | – | – | – | – | – | 184 | – | – | – | 6.31e-08 | > 3.16e-06 | 5.01e-08 | 2e-07 | 3.16e-08
10 | CNCCN(c1cc(OC)cc(OC)c1)c1ccc2ncn(C3CCOCC3)c(=O)c2c1 [Compound 71] | – | – | – | – | – | – | – | – | 135 | – | – | – | 1.26e-06 | > 3.16e-06 | 6.31e-07 | > 3.16e-06 | 3.98e-07
11 | COc1cc(OC)c(F)c(N(CCO)c2ccc3ncn(-c4cccnc4)c(=O)c3c2)c1 [Compound 30] | – | – | – | – | – | – | – | – | 186 | – | – | – | 6.31e-08 | > 3.16e-06 | 2.51e-07 | 5.01e-07 | 3.98e-08
12 | COc1cc(OC)c(F)c(N(Cc2nccn2S(=O)(=O)N(C)C)c2ccc3ncn(C4CCOCC4)c(=O)c3c2)c1 [Compound 67] | – | – | – | – | – | – | – | – | 189 | – | – | – | 7.94e-07 | > 3.16e-06 | 3.16e-07 | > 3.16e-06 | 2.51e-07
13 | COc1cc(OC)c(F)c(N(Cc2ncc[nH]2)c2ccc3ncn(C4CCOCC4)c(=O)c3c2)c1 [Compound 75] | – | – | – | – | – | – | – | – | > 260 | – | – | – | 1.58e-08 | > 3.16e-06 | 3.98e-08 | 2e-07 | 1e-08
